Assay results published in US20110230430A1, “SAPONIN EXTRACT FROM SAPONARIA SPP. AND USES THEREOF” (NATIONAL RESEARCH COUNCIL OF CANADA, priority 2008, published 2011).

Columns and labels:
Format in all cases: cell-based, human
CRL-2522 cells = experiment: Dual Sensor: MitoCasp Assay in CRL-2522 normal fibroblast cells
Source text: (§1) Techniques to assay enzymatic and signaling processes involved in apoptosis have been developed as standard protocols. One example of an early step in apoptosis, is the release of cytochrome C from mitochondria and the activation of caspase-3. Induction of the caspases (a series of cytosolic proteases) is one of the most consistently observed features of apoptosis. Caspases are a family of proteolytic enzymes that transmit the apoptotic signal using a proteolytic cascade. […] Caspases 3 and 7 are effector caspases, central to the caspase cascade pathways. In particular, caspase-3 plays a central role in the process. When caspases are activated, they cleave target proteins; one of the most important of these is poly-(ADP-ribose) polymerase (PARP), which is a protein located in the nucleus. Therefore, assays detecting release of cytochrome C, detecting caspase-3 activity and detecting PARP degradation are effective determinants of apoptosis. The loss of mitochondrial membrane potential is known to occur during apoptosis. To analyze mitochondrial membrane potential, a cationic dye may be used which accumulates in the mitochondria of healthy cells. Collapse of the mitochondrial membrane potential during apoptosis prevents the dye from accumulating in the mitochondria resulting in a decrease in fluorescent intensity that can be detected with flow cytometry. Dual Sensor: MitoCasp™ (Cell Technology) used herein in the Examples is an assay that measures caspase 3/7 activity and cells with decreased mitochondrial membrane potential. In this assay, caspase 3/7 activity is detected using a cell permeable carboxyfluorescein labeled caspase inhibitor, which binds covalently to active caspases 3 and 7. Cells that contain bound inhibitor are detected by an increase in fluorescence when samples are analyzed by flow cytometry.
(§2) Following centrifugation at 500×g for 5 min, cell pellets were resuspended in PBS at 3.3×10^6 cells/mL. 300 μL cell suspension was mixed with 10 μL each of 30X Mitochondria Membrane Potential Dye and 30X Caspase 3/7 detection reagent. Following incubation for 60 min under normal growth conditions, cells were washed twice with 1× wash buffer and resuspended in 0.5 mL 1× wash buffer. Samples were analyzed by flow cytometry measuring the fluorescence emissions from 515 nm to 530 nm for caspase detection, and 574 nm to 600 nm for mitochondrial membrane potential detection.
CRL-2522 cells, acquired from ATCC, (American Type Culture Collection) are normal fibroblast cells that originated from human foreskin. CRL-2522 cells were maintained in RPMI 1640 medium (Gibco) supplemented with 10% fetal bovine serum (Cansera), 100 U/mL penicillin, 100 μg/mL streptomycin and 0.25 μg/mL amphotericin B. Cultures were maintained in medium at 37° C. with 5% CO2 and 100% relative humidity. […]

PC-3 cells [1] = experiment: Vybrant Apoptosis Assay Kit #2 in PC-3 cells
Source text: Another apoptotic assay is the Annexin-V detection of extracellular phosphatidlyserine (PS). Normally, phosphatidylserine is localized on the inner membrane of the plasmalemma. However, during the early stages of apoptosis, externalization of PS takes place. Annexin-V is a calcium binding protein which binds to PS and can be observed with annexin-V-FITC staining by flow cytometry (Martin, et al., 1995). Alexa Fluor® 488-labeled Annexin V, which has a high affinity for PS, is used to detect apoptotic cells by binding to PS on the outer surface of the cell. Propidium iodide staining is used concurrently to detect dead cells. When cells are analyzed by flow cytometry apoptotic cells show Annexin V staining, late apoptotic cells show PI and Annexin V staining, and dead cells show only PI staining. The Vybrant® Apoptosis Assay Kit #2 (Molecular Probes™) used herein in the Examples is an assay that measures Annexin-V positive cells.
(§3) PC-3 cells (ATCC #CRL-1435) were derived from a prostate adenocarcinoma (Kaighn et al., 1979). They were maintained in RPMI 1640 medium (Gibco) supplemented with 10% fetal bovine serum (Cansera), 100 U/mL penicillin, and 100 μg/mL streptomycin and 0.25 μg/mL amphotericin B. Cultures were maintained in medium at 37° C. with 5% CO2 and 100% relative humidity.
(§4) PC-3 cells were seeded in tissue culture flasks with regular growth medium and maintained under normal conditions. […] Following incubation under normal growth conditions for the specified time, cells were washed once with cold phosphate-buffered saline (PBS) (137 mM NaCl, 2.7 mM KCl, 4.3 mM Na2HPO4.7H2O, 1.4 mM KH2PO4) and harvested as previously described. Assays were carried out according to instructions given in kits. All Flow Cytometry was performed using a Coulter Epics XL (Beckman).

PC-3 cells [2] = experiment: Dual Sensor: MitoCasp Assay in PC-3 prostate cancer cells
Source text: as §1, §3
To harvest adherent cells, the existing medium was removed and cells were dissociated with 0.25% (w/v) trypsin-EDTA·4Na in Hank's Balanced Salt Solution (Gibco). To block the proteolytic action of the trypsin, the cells were resuspended in an excess of media containing fetal bovine serum. Cells were transferred to a 15 mL conical centrifuge tube and pelleted by centrifugation at 500×g for 5 min. Cell pellets were resuspended in media, and an aliquot of the cells were seeded into a new flask.
as §4, §2

[3] = CRL-2522 cells, 1.25 μM PC1464, 36 hr
[4] = CRL-2522 cells, 2.5 μM PC1464, 36 hr
[5] = CRL-2522 cells, 5.0 μM PC1464, 36 hr
[6] = CRL-2522 cells, 7 μM PC1464, 10 hr
[7] = CRL-2522 cells, 7 μM PC1464, 20 hr
[8] = CRL-2522 cells, 7 μM PC1464, 30 hr
[9] = CRL-2522 cells, 10.0 μM PC1464, 36 hr

Q: Segetoside I [PC1464] was tested. Which “Cells with caspase 3/7 activity” value (CRL-2522 cells; [3]) did it give?
A: Its value is 1.7%.

Q: And the “Cells with decreased mitochondrial membrane potential” value (CRL-2522 cells; [3])?
A: Its value is 1.7%.

Q: And the “Cells with caspase 3/7 activity” value (CRL-2522 cells; [4])?
A: Its value is 3.2%.

Q: What about the “Cells with decreased mitochondrial membrane potential” value (CRL-2522 cells; [4]) of the same substance?
A: Its value is 1.4%.

Q: And the “Cells with caspase 3/7 activity” value (CRL-2522 cells; [5])?
A: Its value is 14.4%.

Q: What about the “Cells with decreased mitochondrial membrane potential” value (CRL-2522 cells; [5]) of the same substance?
A: Its value is 1.3%.

Q: What about the “Effect on apoptosis (in words)” value (CRL-2522 cells; CRL-2522 cells, 7 μM PC1464, 10-30 hr) of the same substance?
A: Its value is “minimal effect”.

Q: What about the “Cells with caspase 3/7 activity” value (CRL-2522 cells; [6]) of the same substance?
A: The value was 3.2%.

Q: And the “Cells with decreased mitochondrial membrane potential” value (CRL-2522 cells; [6])?
A: Its value is 4.4%.

Q: What about the “Cells with caspase 3/7 activity” value (CRL-2522 cells; [7]) of the same substance?
A: The value was 11.7%.

Q: And the “Cells with decreased mitochondrial membrane potential” value (CRL-2522 cells; [7])?
A: The value was 4.4%.

Q: And the “Cells with caspase 3/7 activity” value (CRL-2522 cells; [8])?
A: Its value is 16.9%.

Q: And the “Cells with decreased mitochondrial membrane potential” value (CRL-2522 cells; [8])?
A: The value was 5.1%.

Q: And the “Cells with caspase 3/7 activity” value (CRL-2522 cells; [9])?
A: The value was 19.9%.

Q: And the “Cells with decreased mitochondrial membrane potential” value (CRL-2522 cells; [9])?
A: The value was 2.2%.

Q: And the “Cells with Caspase 3/7 activity and decreased mitochondrial membrane potential vs untreated (in words)” value (CRL-2522 cells; CRL-2522 cells, PC1464 10.0-1.25 μM, 36 hours)?
A: The value was “slight increase”.

Q: What about the “Apoptosis in non-cancerous cell line (summary in words)” value (CRL-2522 cells; fibroblast cell line CRL-2522, summary of the Examples) of the same substance?
A: Its value is “no or little apoptosis”.

Q: And the Annexin-V positive cells (PC-3 cells [1]; 7 μM PC1464, 10 hr)?
A: The Annexin-V positive cells was 21.0%.

Q: What about the Annexin-V positive cells (PC-3 cells [1]; 7 μM PC1464, 20 hr) of the same substance?
A: The Annexin-V positive cells was 30.9%.

Q: And the Annexin-V positive cells (PC-3 cells [1]; 7 μM PC1464, 30 hr)?
A: Its Annexin-V positive cells is 44.7%.

Q: And the “Increase in Annexin V positive cells vs untreated” value (PC-3 cells [1]; 7 μM or 14 μM PC1464, 30 hr)?
A: Its value is “three to six fold”.

Q: What about the Annexin-V positive cells (PC-3 cells [1]; 14 μM PC1464, 10 hr) of the same substance?
A: The Annexin-V positive cells was 11.5%.

Q: And the Annexin-V positive cells (PC-3 cells [1]; 14 μM PC1464, 20 hr)?
A: Its Annexin-V positive cells is 28.9%.

Q: What about the Annexin-V positive cells (PC-3 cells [1]; 14 μM PC1464, 30 hr) of the same substance?
A: The Annexin-V positive cells was 49.4%.

Q: And the “Cells with caspase 3/7 activity” value (PC-3 cells [2]; 1.25 μM PC1464, 36 hr)?
A: Its value is 9.6%.

Q: And the “Cells with decreased mitochondrial membrane potential” value (PC-3 cells [2]; 1.25 μM PC1464, 36 hr)?
A: The value was 1.8%.

Q: What about the “Cells with caspase 3/7 activity” value (PC-3 cells [2]; 1.75 μM PC1464, 26 hr) of the same substance?
A: Its value is 8.5%.

Q: What about the “Cells with decreased mitochondrial membrane potential” value (PC-3 cells [2]; 1.75 μM PC1464, 26 hr) of the same substance?
A: Its value is 3.2%.

Q: What about the “Cells with caspase 3/7 activity” value (PC-3 cells [2]; 2.5 μM PC1464, 36 hr) of the same substance?
A: The value was 15.1%.

Q: What about the “Cells with decreased mitochondrial membrane potential” value (PC-3 cells [2]; 2.5 μM PC1464, 36 hr) of the same substance?
A: Its value is 3.4%.

Q: And the “Cells with caspase 3/7 activity” value (PC-3 cells [2]; 3.50 μM PC1464, 26 hr)?
A: The value was 40.4%.

Q: What about the “Cells with decreased mitochondrial membrane potential” value (PC-3 cells [2]; 3.50 μM PC1464, 26 hr) of the same substance?
A: Its value is 14.8%.

Q: What about the “Cells with caspase 3/7 activity” value (PC-3 cells [2]; 5.0 μM PC1464, 36 hr) of the same substance?
A: Its value is 57.1%.

Q: What about the “Cells with decreased mitochondrial membrane potential” value (PC-3 cells [2]; 5.0 μM PC1464, 36 hr) of the same substance?
A: Its value is 28.7%.

Q: And the “Cells with caspase 3/7 activity” value (PC-3 cells [2]; 5.25 μM PC1464, 26 hr)?
A: The value was 49.5%.

Q: What about the “Cells with decreased mitochondrial membrane potential” value (PC-3 cells [2]; 5.25 μM PC1464, 26 hr) of the same substance?
A: The value was 20.3%.

Q: What about the “Cells with caspase 3/7 activity” value (PC-3 cells [2]; 7 μM PC1464, 10 hr) of the same substance?
A: Its value is 12.2%.

Q: What about the “Cells with decreased mitochondrial membrane potential” value (PC-3 cells [2]; 7 μM PC1464, 10 hr) of the same substance?
A: The value was 5.1%.

Q: And the “Cells with caspase 3/7 activity” value (PC-3 cells [2]; 7 μM PC1464, 20 hr)?
A: The value was 40.1%.

Q: And the “Cells with decreased mitochondrial membrane potential” value (PC-3 cells [2]; 7 μM PC1464, 20 hr)?
A: Its value is 21.4%.

Q: And the “Cells with caspase 3/7 activity” value (PC-3 cells [2]; 7.00 μM PC1464, 26 hr)?
A: The value was 59.4%.

Q: What about the “Cells with decreased mitochondrial membrane potential” value (PC-3 cells [2]; 7.00 μM PC1464, 26 hr) of the same substance?
A: Its value is 24.1%.

Q: What about the “Increase in cells with decreased mitochondrial membrane potential” value (PC-3 cells [2]; 7 μM PC1464, 30 hours) of the same substance?
A: The value was “more than ten fold”.

Q: What about the “Increase in number of cells with caspase 3/7 activity” value (PC-3 cells [2]; 7 μM PC1464, 30 hours) of the same substance?
A: Its value is “six fold”.

Q: What about the “Cells with caspase 3/7 activity” value (PC-3 cells [2]; 7 μM PC1464, 30 hr) of the same substance?
A: The value was 54.6%.

Q: What about the “Cells with decreased mitochondrial membrane potential” value (PC-3 cells [2]; 7 μM PC1464, 30 hr) of the same substance?
A: The value was 51.2%.

Q: And the “Cells with caspase 3/7 activity” value (PC-3 cells [2]; 10.0 μM PC1464, 36 hr)?
A: Its value is 59.6%.

Q: What about the “Cells with decreased mitochondrial membrane potential” value (PC-3 cells [2]; 10.0 μM PC1464, 36 hr) of the same substance?
A: The value was 43.2%.

Q: What about the “Concentration of greatest effect on apoptosis” value (PC-3 cells [2]; 36 hours) of the same substance?
A: The value was “above 5 μM”.

Q: And the “Induction of apoptosis at concentrations as low as” value (PC-3 cells [2]; 36 hours)?
A: Its value is 2.5 µM.

Q: What about the “Concentrations with significant effect on induction of apoptosis” value (PC-3 cells [2]; PC1464 1.75-7 μM, 26 hour) of the same substance?
A: Its value is no less than 3.5 µM.
